# Measurements taken from US20050011468A1, “Use of methylnaltrexone in treating gastrointestinal dysfunction in equines” (priority 2002, published 2005).
# Tests used:
# [1] = system: bowel peristalsis / gastric emptying; conditions: one burn patient with postoperative colic; infusion 0.3 mg/kg over 15 minutes; during drug administration; cited from earlier work
# [2] = in vivo; cited from earlier work
# morphine-induced rage = conditions: in an animal; cited from earlier work
# [3] = system: bowel peristalsis / gastric emptying; assay: postoperative colic (ileus) in a burn patient treated with methylnaltrexone infusion; type: in vivo, human; conditions: following administration of the drug (unpublished data)
# Excerpt: Recent human data support the role of endogenous opioids, including endorphins, in the pathogenesis of postoperative ileus in humans. See Taguchi A., et al., “Selective postoperative inhibition of gastrointestinal opioid receptors,” New Engl. J. Med. 345:935-40, 2001. No reference is made to either equine colic or the etiology of perioperative management of equines or other animals. […] Prior to administration, there had been no evidence of bowel peristalsis and no passage of flatus. See Moss J., et al., “Selective postoperative inhibition of gastrointestinal opioid receptors,” (correspondence) New Engl. J. Med. 346(6):455 (2002).
# [4] = cited from earlier work
# gut motility = conditions: β-endorphin homologues from six species; read-out: IC50 on the standard model of gut motility; cited from earlier work
Compound,bowel sounds and flatus [1],crossing of the blood-brain-barrier [2],severity of morphine-induced rage (morphine-induced rage),gastric residuals [3],absorption after oral administration ([4]; from the stomach and bowel),"time to initial plasma levels ([4]; oral administration, non-enteric coated compound) [min]",IC50 (gut motility) [nM]
C[N@+]1(CC2CC2)CC[C@]23c4c5ccc(O)c4O[C@H]2C(=O)CC[C@@]3(O)[C@H]1C5 [methylnaltrexone],prompt restoration of bowel sounds and flatus,does not cross the blood-brain-barrier,minimize the severity,markedly reduced,rapidly absorbed,5 to 10,
"human endorphin: human homologue of β-endorphin, IC50 printed as 'that of humans'",,,,,,,12.2
